Measurements reported in patent US5208135A, “Preparation and use of dyes” (Minnesota Mining and Manufacturing Company, priority 1990, dated 1993).

Legend:
[1] = Dye stability on storage in light-tight envelope at room temperature; assay type: physicochemical; details: for Loss of optical density after storage (thermal bleaching): Example 5 coating, 24 hour storage, light-tight envelope; for Loss of optical density after storage (thermal bleaching) / Loss of dye density during storage / Dye Stability: OD at Day 0 / Dye Stability: OD at Day 7: room temperature; for Loss of dye density during storage: less than 24 hours; for Dye Stability: OD at Day 0 / Dye Stability: OD at Day 7: lighttight envelope
Experimental: However, both Control Dyes 1 and 2 are readily bleached during storage with an 80% loss of dye density in less than 24 hours. Thus the dyes of the invention show increased stability compared with the control dyes.
*Storage is conducted in a lighttight envelope at room temperature.

[2] = Absorption maximum and optical density of dye; assay type: physicochemical; details: for λmax: Table 1
Experimental: The solution was coated using K-bar 3 onto unsubbed 0.01 cm PET base and the resulting coating dried for 1 hour at 30° C. ("K-bars" are wire wound coating rods manufactured by R.K. Print-Coat Instrument Ltd.) The dried coating was topcoated with an aqueous solution of poly(vinyl alcohol) (8%) containing Tergitol TMN-10, commercially available from Union Carbide, using K-Bar 8 (10 ml 8% poly(vinyl alcohol) containing 1 ml 10% Tergitol TMN-10). The top coating was dried for 12 hours at 30° C. to provide a PVA oxygen-impermeable barrier layer over the photopolymer layer. The inclusion of a PVA barrier layer provides a more controlled imaging element for the evaluation of dye sensitised photopolymerisation than the composite of the previous Example.

[3] = Sensitisation of acrylate polymerisation: tungsten light exposure of laminate, acetone development (Example 4); details: coating; for Acetone Solubility After Exposure: after exposure to 250W tungsten light source for 30 seconds
Experimental: The ability of Dye C of the invention and Control Dyes 1 and 2 to sensitise acrylate polymerisation was evaluated by the following protocol.
A solution of Dye C (0.lg), pentaerythritol tetraacrylate monomer (0.6g), commercially available from Ancomer Chemicals under the trade designation ATM 11, 4-butoxyphenyl phenyl iodonium trifluoroacetate (0.125g) shown below as IOD J, and poly(vinyl butyral) (Butvar B-76) (0.6 g), was made in butanone (95 g) in conditions of diminished light. [drawing 30]
The solution was coated onto 0.01 cm unsubbed poly(ethylene terephthalate) (PET) base at a wet thickness of 24μm and dried. A laminate was prepared by covering the monomer coating with a second 0.01 cm PET sheet by cold pressure rolling. The laminate was imagewise exposed to a 250W tungsten light source for 30 seconds using the stage of an overhead projector. […] Stripping of the cover sheet was more readily completed in exposed areas, whereas, in unexposed areas the monomer coatings partially adhered to the cover sheet. The latent image was developed by immersion in acetone, wherein exposed areas remained adhered to the PET base and unexposed areas were rapidly dissolved to obtain a relief image.

Row | Loss of optical density after storage (thermal bleaching) [1] | Loss of dye density during storage ([1]; laminate) [%] | Dye Stability: OD at Day 0 [1] | Dye Stability: OD at Day 7 [1] | λmax [2] [nm] | Absorption maximum in coating ([2]; dried coating of Example 5) [nm] | OD at the absorption maximum ([2]; dried coating of Example 5, at 803 nm) | SMILES | Acetone Solubility After Exposure [3] | Acetone Solubility Before Exposure [3] | Imaging characteristics after storage ([1]; laminate, light tight envelope, 7 days, room temperature prior to exposure)
1 | lost substantially all optical density | 80 | 1.5 | 0.1 | 760 |  |  | O=C1C(=CC=CC=CC=CC2=C(O)c3ccccc3C2=O)C(=O)c2ccccc21 [Control Dye 2] | Yes | Yes | 
2 |  |  |  |  |  | 803 | 0.39 | N#CC(C#N)=C1C(=CC=CC=CC2=C(O)c3ccccc3C2=C(C#N)C#N)C(=O)c2ccccc21 [Dye B] |  |  | 
3 | lost substantially all optical density | 80 | 1.3 | 0.1 | 650 |  |  | CCOC(=O)C(C#N)=CC=CC=CC=CC(C#N)=C(O)OCC [Control Dye 1] | Yes | Yes | 

Row | SMILES | Loss of optical density after storage (thermal bleaching) [1] | Loss of dye density during storage ([1]; laminate) [%] | Dye Stability: OD at Day 0 [1] | Dye Stability: OD at Day 7 [1] | λmax [2] [nm] | Absorption maximum in coating ([2]; dried coating of Example 5) [nm] | OD at the absorption maximum ([2]; dried coating of Example 5, at 803 nm) | Acetone Solubility After Exposure [3] | Acetone Solubility Before Exposure [3] | Imaging characteristics after storage ([1]; laminate, light tight envelope, 7 days, room temperature prior to exposure)
4 | N#CC(C#N)=C1C(=CC=CC=CC2=C(O)c3c(cccc3[N+](=O)[O-])C2=C(C#N)C#N)C(=O)c2c1cccc2[N+](=O)[O-] [Dye C] |  |  | 0.8 | 0.8 | 815 |  |  | No | Yes | unchanged imaging characteristics
